Tested on: HEK293 cells
Experiment: HEK293 Cytotoxicity Assay (CellTiterGlo, CC50)
Assay type: cell-based, human
Description: Some exemplary assays and examples for assessing therapeutic efficacy, e.g., anticancer effects, of exemplary compounds of the invention are described herein or are well known in the art. HEK293 is a human kidney cell line, and efficacy on HEK293 is considered to be predictive of usefulness for therapeutic treatment.
HEK293 cells were obtained from American Type Culture Collection (ATCC) (Rockville Md.). Cells were maintained in Dulbecco's modified Eagle's medium (DMEM) (Invitrogen, Carlsbad, Calif.) with 10% fetal bovine serum (FBS), 10 mM HEPES and 1 mM sodium pyruvate. Cells were grown at 37° C. in a humidified incubator with a gas phase of 5% CO2. Cells were grown for 24 hours in a Tripleflask (NUNC) to −95% confluence and then resuspended for dispensing at 125,000 cells/mL of DMEM, 10% FBS, 10 mM Hepes and 1 mM sodium pyruvate.
HEK293 cells were seeded in 96 well microtiter plates at 10000 cells/well. After 24 hours of incubation an equal volume of fresh media containing test compounds at given concentrations was added. Plates were then incubated and cells were allowed to proliferate for 48 hours at 37° C., 95% humidity, and 5% CO2. […] A solution of Promega CellTiterGlo (100 microliters) was added by Thermo Combi and the plates were allowed to sit for 10 minutes before reading on a Perkin-Elmer EnVision with US LUM settings for 0.1 sec per well. […]

SMILES: NC(=O)c1ncn([C@@H]2O[C@H](COP(=O)(O)Oc3ccc([N+](=O)[O-])cc3)[C@@H](O)[C@H]2O)c1N [SB00039]
- potency relative to AICAR in HEK293 assay (HEK293 cells, times the potency of AICAR): roughly 100 times

SMILES: COP(=O)(OC)OC[C@H]1O[C@@H](n2cnc(C(N)=O)c2N)[C@H](O)[C@@H]1O [SB00024]
- activity on HEK293 cells (CC50, 50% cytotoxic concentration) (at 500 uM, 48 hours with compound): inactive

From patent publication US11834469B2, “AMP-activated protein kinase activating compounds and uses thereof” (Skylark Bioscience LLC, priority 2018, dated 2023)
